From publication PMC7982406, “Proteinase-Mediated Macrophage Signaling in Psoriatic Arthritis” (Frontiers in Immunology, 2021)
One block for each compound: values may come before it. Where a SMILES comes first, the peptide text is derived from it. [ ]: non-standard residue; d: D form. The star is where a group is joined. AMC = Cc1cc(=O)oc2cc(N*)ccc12

How the values were obtained:
[1] = target: proteinase-activated receptor 2 (human (endogenous in HEK-293, THP-1 and primary monocytes/macrophages)) (UniProt P55085)
[2] = target: T1, PAR2 (proteinase-activated receptor 2) (Homo sapiens, UniProt P55085); test: calcium signaling (Fluo-4 AM), HEK-293 cells; assay type: cell-based; conditions: antagonist; pre-treatment, then 0.15 µM 2fLI as agonist; 37 °C
T1 construct: gene F2RL1; endogenous full-length receptor in HEK-293 cells; no response to 2fLI in CRISPR PAR2-knockout HEK-293
T1 sequence (P55085 26-397): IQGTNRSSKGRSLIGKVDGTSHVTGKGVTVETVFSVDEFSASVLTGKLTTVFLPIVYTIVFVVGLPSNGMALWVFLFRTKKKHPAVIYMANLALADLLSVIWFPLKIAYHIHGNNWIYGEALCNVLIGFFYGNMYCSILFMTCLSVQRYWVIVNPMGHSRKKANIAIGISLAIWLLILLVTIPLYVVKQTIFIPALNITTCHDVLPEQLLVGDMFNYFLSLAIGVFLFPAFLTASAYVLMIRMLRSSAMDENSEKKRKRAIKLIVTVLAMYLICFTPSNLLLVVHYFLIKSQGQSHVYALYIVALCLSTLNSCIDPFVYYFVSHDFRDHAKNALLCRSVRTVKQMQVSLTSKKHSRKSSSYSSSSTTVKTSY

[3] = target: T2, Tryptase-6 (PRSS33) (Homo sapiens, UniProt Q8NF86); test: fluorogenic cleavage, antibody pull-down from synovial fluid; assay type: biochemical; conditions: 37 °C; ex 380 nm, em 460 nm; enzyme captured by plate-immobilized antibody
T2 construct: native active enzyme (~25 kDa) captured by anti-tryptase-6 antibody from patient synovial fluid
T2 sequence (Q8NF86 37-280): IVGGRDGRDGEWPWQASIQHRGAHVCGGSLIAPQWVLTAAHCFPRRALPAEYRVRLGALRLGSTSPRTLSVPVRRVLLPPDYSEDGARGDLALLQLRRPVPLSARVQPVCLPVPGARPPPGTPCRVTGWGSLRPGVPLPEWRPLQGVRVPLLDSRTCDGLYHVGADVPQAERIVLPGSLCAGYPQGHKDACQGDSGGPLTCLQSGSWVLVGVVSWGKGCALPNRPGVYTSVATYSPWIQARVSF

calcium signaling (Fluo-4 AM) in HEK-293 cells, concentration-effect curve of 2fLI, EC50 [1]: 140 nM
Compound: 2-furoyl-LIGRLO-NH2 (peptide)

IC50 [2]: 2.1 nM
Compound: CC(C)(C)c1cc(-c2ccc(F)cc2)nn2cc(C(=O)N3CCNC(=O)C3(C)C)nc12 [I-191]

Compound: Cc1cc(=O)oc2cc(NC(=O)[C@H](CCCCN)NC(=O)[C@H](CC(C)C)NC(=O)[C@H](N)C(C)C)ccc12 [VLK-AMC] (H-[dV]-Leu-Lys-{AMC})
fluorogenic cleavage, antibody pull-down from synovial fluid [3]: Tryptase-6 activity increased when both substrates were added
